One block for each compound: values may come before it.
Test: solvent given as SMILES
[1] = in O=P(c1ccccc1)(c1ccccc1)c1ccccc1Oc1ccccc1P(=O)(c1ccccc1)c1ccccc1

Structure (SMILES): Cc1ccc2c(c1)C1(c3ccccc3-c3ccccc31)c1cc(C)ccc1N2c1ccc2c(c1)Oc1ccccc1P2(=S)c1ccccc1 (stereo unspecified)
- emission maximum (in Cc1ccccc1): 443.09 nm

Structure (SMILES): O=c1c2ccccc2[nH]c2ccccc12
- emission maximum (in CS(C)=O): 408 nm
- emission maximum (in O): 416 nm

Structure (SMILES): CC(C)(C)c1ccc(C(C)(C)C)c(N2C(=O)c3cccc4c(-c5ccc(-c6ccccc6)s5)ccc(c34)C2=O)c1
- emission maximum (in CO): 572 nm
- emission maximum (in CS(C)=O): 557 nm
- emission maximum (in Cc1ccccc1): 493 nm

Structure (SMILES): [NH3+]c1ccc2ccc(O)cc2c1
- emission maximum (in O): 357 nm

Structure (SMILES): O=S1(=O)c2ccccc2-c2cc(-n3c4ccccc4c4cc(-c5ccc6c(c5)c5ccccc5n6-c5ccccc5)ccc43)ccc21
- emission maximum [1]: 462.73 nm

Structure (SMILES): CC1(C)c2ccccc2N2c3ccccc3C3(c4cc(C#N)ccc4-c4ccc(C#N)cc43)c3cccc1c32
- emission maximum (in Cc1ccccc1): 485.37 nm

Structure (SMILES): CN(C)c1ccc(/C=C/C=C2\CC/C(=C\C=C\c3ccc(N(C)C)cc3)C2=O)cc1
- emission maximum (in C1CCCCC1): 500 nm
- emission maximum (in CC#N): 717 nm
- emission maximum (in CC(C)=O): 694 nm
- emission maximum (in CC(C)O): 718 nm
- emission maximum (in CCCCCC): 496 nm
- emission maximum (in CCCCO): 739 nm
- emission maximum (in CCCO): 740 nm
- emission maximum (in CCO): 744 nm
- emission maximum (in CCOC(C)=O): 644 nm
- emission maximum (in CCOCC): 586 nm
- emission maximum (in CN(C)C=O): 715 nm
- emission maximum (in CO): 735 nm
- emission maximum (in CS(C)=O): 727 nm
- emission maximum (in Cc1ccccc1): 553 nm
- emission maximum (in ClC(Cl)(Cl)Cl): 537 nm
- emission maximum (in ClCCl): 672 nm
- emission maximum (in OCC(F)(F)F): 764 nm
- emission maximum (in S=C=S): 568 nm
- emission maximum (in c1ccccc1): 567 nm
- emission maximum (in c1ccncc1): 681 nm

Structure (SMILES): O=S(=O)(c1ccc(N2c3ccccc3Oc3ccccc32)cc1)c1ccc(N2c3ccccc3Oc3ccccc32)cc1
- emission maximum (in C1COCCO1): 524 nm
- emission maximum (in CC(C)=O): 577 nm
- emission maximum (in Cc1ccccc1): 507 nm
- emission maximum (in ClC(Cl)Cl): 539 nm
- emission maximum (in c1cc(-n2c3ccccc3c3ccccc32)cc(-n2c3ccccc3c3ccccc32)c1): 505 nm

Structure (SMILES): CC(C)(C)c1ccc(-c2nc3c4ccc(-c5cc6ccccc6c6ccccc56)cc4c4cc(-c5cc6ccccc6c6ccccc56)ccc4c3n2-c2ccc(C(C)(C)C)cc2)cc1
- emission maximum (in C1CCOC1): 388 nm
- emission maximum (in C1COCCO1): 386 nm
- emission maximum (in CC#N): 405 nm
- emission maximum (in CCCCCC): 382 nm
- emission maximum (in CCCCOCCCC): 384 nm
- emission maximum (in CCN(CC)CC): 384 nm
- emission maximum (in CCOC(C)=O): 388 nm
- emission maximum (in CCOCC): 384 nm
- emission maximum (in CN(C)C=O): 404 nm
- emission maximum (in Cc1ccccc1): 385 nm
- emission maximum (in ClC=C(Cl)Cl): 388 nm
- emission maximum (in ClCCl): 404 nm

Structure (SMILES): [O-][n+]1c(-c2ccccc2)cc(N2CCOCC2)nc1/C=C/c1ccccc1
- emission maximum (in ClCCl): 548 nm

Structure (SMILES): c1ccc([B-]2(c3ccccc3)Oc3ccc4ccccc4c3-c3c4ccccc4cn[n+]32)cc1
- emission maximum (in Cc1ccccc1): 555 nm

Structure (SMILES): Clc1ccc(-c2nc(-c3ccccc3)c(N(c3ccccc3)c3ccccc3)s2)cc1
- emission maximum (in ClC(Cl)Cl): 474 nm

Structure (SMILES): CC(=O)c1c(N[C@@H](Cc2ccc(O)cc2)C(=O)O)c2ccc(N(C)C)cc2oc1=O
- emission maximum (in ClCCl): 415 nm

Structure (SMILES): COCCC1=Cc2nc1ccc1[nH]c(cc1CCOC)c1nc(ccc3[nH]c2cc3CCO)C(CCOC)=C1
- emission maximum (in Cc1ccccc1): 643 nm

Structure (SMILES): O=P1(c2ccccc2)C(c2ccccc2)=Cc2cc3ccccc3cc21 (stereo unspecified)
- emission maximum (in ClCCl): 428 nm

Structure (SMILES): CSc1ccc(/C=C/c2cnc3ccccc3n2)cc1
- emission maximum (in C1CCOC1): 467 nm
- emission maximum (in CC#N): 499 nm
- emission maximum (in CCCCCCC): 426 nm
- emission maximum (in CS(C)=O): 513 nm
- emission maximum (in ClCCl): 475 nm

Structure (SMILES): Cc1cc(=O)oc2ccc3ccc(O)cc3c12
- emission maximum (in CC#N): 429 nm
- emission maximum (in CCO): 450 nm

Structure (SMILES): C(=C1c2ccccc2CCc2ccccc21)c1ccc(-c2ccc(C=C3c4ccccc4CCc4ccccc43)cc2)cc1
- emission maximum (in C1CCOC1): 394 nm

Structure (SMILES): F[B-]1(F)OC(c2ccc3ccccc3c2)=CC(c2ccc3ccccc3c2)=[O+]1
- emission maximum (in CC#N): 510 nm
- emission maximum (in ClC(Cl)(Cl)Cl): 428 nm

Structure (SMILES): COC(=O)c1nc(-c2ccccc2)oc1C
- emission maximum (in C1CCCCC1): 297 nm
- emission maximum (in CC#N): 322 nm
- emission maximum (in CCO): 324 nm
- emission maximum (in CCOC(C)=O): 318 nm
- emission maximum (in O): 328 nm

Structure (SMILES): N#Cc1cc(C#N)c(-n2c3ccccc3c3c(-c4cccc5c4c4ccccc4n5-c4cc(-n5c6ccccc6c6ccccc65)c(C#N)cc4C#N)cccc32)cc1-n1c2ccccc2c2ccccc21
- emission maximum [1]: 444 nm

Structure (SMILES): O=[N+]([O-])c1ccc(C#Cc2ccc3ccccc3c2)cc1
- emission maximum (in ClC(Cl)Cl): 536 nm
- emission maximum (in ClCCl): 546 nm

Structure (SMILES): F[B-]1(F)n2cccc2C(c2c3ccccc3c(-c3ccccc3)c3ccccc23)=C2C=CC=[N+]21
- emission maximum (in CC#N): 524 nm
- emission maximum (in CCCCCC): 564 nm
- emission maximum (in CCO): 522 nm
- emission maximum (in CN(C)C=O): 526 nm
- emission maximum (in Cc1ccccc1): 529 nm
- emission maximum (in ClCCl): 526 nm

Structure (SMILES): CCCCCCCCCCCCC(CCCCCCCCCC)Cn1c2cc(/C=C/c3nc4ccccc4s3)c3cccc4c5cccc6c(/C=C/c7nc8ccccc8s7)cc1c(c65)c2c34 (stereo unspecified)
- emission maximum (in C1CCCCC1): 570 nm
- emission maximum (in CC#N): 581 nm
- emission maximum (in Cc1ccccc1): 582 nm
- emission maximum (in ClCCl): 585 nm

Structure (SMILES): COC(=O)/C(C#N)=c1\s/c(=c2/s/c(=C(/C#N)C(=O)OC)c3cc(-c4ccc(C)cc4)sc23)c2sc(-c3ccc(C)cc3)cc12
- emission maximum (in Cc1ccccc1): 652 nm

Structure (SMILES): CC1=C2C=CC=[N+]2[B-](F)(F)n2cccc21
- emission maximum (in CCCCCC): 506 nm
- emission maximum (in CO): 503 nm
- emission maximum (in ClCCl): 507 nm

Structure (SMILES): C[Si](C)(C)c1cccc2ccccc12
- emission maximum (in C1CCCCC1): 328 nm

Structure (SMILES): CCCN(c1ccccc1)c1ccc2c(c1)C(CC)(CC)c1cc(/C=C/c3ccc(/C=C(\C#N)C(=O)O)s3)ccc1-2
- emission maximum (in C1CCOC1): 572 nm
- emission maximum (in C1COCCO1): 617 nm
- emission maximum (in CC#N): 531 nm
- emission maximum (in CC(C)=O): 575 nm
- emission maximum (in CCOC(C)=O): 552 nm
- emission maximum (in CN(C)C=O): 593 nm
- emission maximum (in CS(C)=O): 514 nm
- emission maximum (in ClCCl): 600 nm

Second part, the compound after the results:

- emission maximum (in C1CCOC1): 472 nm
Structure (SMILES): Cc1cc(C)c(-c2cc3c(s2)-c2sc(-c4c(C)cc(C)cc4C)cc2P(c2ccccc2)(c2ccccc2)=[O+][B-]3(c2c(C)cc(C)cc2C)c2c(C)cc(C)cc2C)c(C)c1

- emission maximum (in C1CCOC1): 809 nm
- emission maximum (in ClCCl): 811 nm
Structure (SMILES): CCC(CC)COC1=CC2=C3c4cc(OCC(CC)CC)c(-c5cccs5)n4[B-](F)(F)[n+]4c3n(c3cc(C(C)(C)C)ccc34)[B-](F)(F)[N+]2=C1c1cccs1

- emission maximum (in ClCCl): 441 nm
Structure (SMILES): CC(C)(C)NC(=O)c1ccc(-c2cc3ccccc3s2)c2ccc3c4ccccc4c4ccccc4c3c12

- emission maximum (in ClC(Cl)Cl): 670 nm
Structure (SMILES): c1ccc(N(c2ccccc2)c2ccc(-c3ccc(-c4ccc(-c5cccs5)c5nsnc45)s3)cc2)cc1

- emission maximum (in ClCCl): 620 nm
Structure (SMILES): CC[B-]1(CC)c2cccc3c4c5c(cccc5c(c23)-c2cccc(C)[n+]21)[B-](CC)(CC)[n+]1c(C)cccc1-4

- emission maximum (in ClCCl): 557 nm
Structure (SMILES): CCCCN(CCCC)c1ccc(C#Cc2cc(C#Cc3ccc([N+](=O)[O-])cc3)c(C#Cc3ccc(N(CCCC)CCCC)cc3)cc2C#Cc2ccc([N+](=O)[O-])cc2)cc1

- emission maximum (in C1CCOC1): 375.8 nm
Structure (SMILES): CCCCCCCCCCCCn1c(-c2cc(-c3nc4ccc(C)cc4n3CCCCCCCCCCCC)cc(-c3nc4ccc(C)cc4n3CCCCCCCCCCCC)c2)nc2ccc(C)cc21

- emission maximum (in CC#N): 414 nm
Structure (SMILES): CCOC(=O)c1c2c3c(ccc(Cl)c3c3cc4ccccc4cc13)N(C)C2=O

- emission maximum (in ClCCl): 484 nm
Structure (SMILES): Cc1cc(C)c(B2c3cc(C)ccc3N3c4ccc(C)cc4B(c4c(C)cc(C)cc4C)c4cc(C)cc2c43)c(C)c1

- emission maximum (in CC#N): 654 nm
- emission maximum (in CCO): 650 nm
- emission maximum (in ClCCl): 645 nm
- emission maximum (in O): 660 nm
Structure (SMILES): C=CCNc1ccc2c(ccc3oc4cc(=[N+](C)C)ccc-4nc32)c1

- emission maximum (in CC#N): 727 nm
Structure (SMILES): CN1/C(=C\C=C\C2=C3C=CC(c4ccccc4)=[N+]3[B-](F)(F)n3c2ccc3-c2ccccc2)Sc2ccccc21

- emission maximum (in CCCCCC): 615 nm
- emission maximum (in CCCCCCCCO): 623 nm
- emission maximum (in CCOC(C)=O): 617 nm
- emission maximum (in CN(C)C=O): 624 nm
Structure (SMILES): CC1=CC(C)=[N+]2C1=Cc1c3ccccc3c(C#Cc3ccc(F)cc3)n1[B-]2(F)F

- emission maximum (in ClCCl): 502 nm
Structure (SMILES): C[Si]1(C)O[Si](C)(C)c2cc3c(-c4ccccc4)c4ccccc4nc3cc21

- emission maximum (in ClC(Cl)Cl): 588 nm
Structure (SMILES): CC1=CC(C)=[N+]2C1=C(C1=C3C(C)=CC(C)=[N+]3[B-](F)(F)n3c(C)cc(C)c31)c1c(C)cc(C)n1[B-]2(F)F

- emission maximum (in C1CCCCC1): 650 nm
- emission maximum (in CCOC(C)=O): 670 nm
Structure (SMILES): CC1=[N+]2C(=C(c3cccs3)c3ccc(C)n3[B-]2(F)F)C=C1c1cc2n(c1)[B-](F)(F)[N+]1=CC=CC1=C2c1c(C)cc(C)cc1C

- emission maximum (in CC#N): 466 nm
- emission maximum (in CO): 484 nm
- emission maximum (in ClCCl): 462 nm
Structure (SMILES): COc1ccc(OC)c(-c2[nH]c(=O)n3c2-c2ccccc2C3=O)c1

- emission maximum (in ClC(Cl)Cl): 682 nm
Structure (SMILES): CCCCCCCCCCOc1cc(OCCCCCCCCCC)cc(C2=C3C(C)=CC(/C=C/c4ccc(OC)cc4)=[N+]3[B-](F)(F)n3c(/C=C/c4ccc(OC)cc4)cc(C=Cc4ccc(OC)cc4)c32)c1

- emission maximum (in C1CCCCC1): 463 nm
- emission maximum (in C1CCOC1): 540 nm
- emission maximum (in CC#N): 598 nm
- emission maximum (in CS(C)=O): 600 nm
- emission maximum (in ClCCl): 571 nm
Structure (SMILES): C(=C\c1ncnc2ccccc12)/c1ccc(N(c2ccccc2)c2ccccc2)cc1

- emission maximum (in ClC(Cl)Cl): 550 nm
Structure (SMILES): C(#Cc1cccs1)C(C#Cc1cccs1)=Cc1ccc(C=C(C#Cc2cccs2)C#Cc2cccs2)s1

- emission maximum (in ClC(Cl)Cl): 437 nm
Structure (SMILES): C[Si]1(C)O[Si](C)(C)c2cc3cc4c(cc3cc21)C(=O)c1cc2cc3c(cc2cc1C4=O)[Si](C)(C)O[Si]3(C)C

- emission maximum (in ClCCl): 414 nm
Structure (SMILES): CC(C)(C)c1ccc2c(c1)c1ncncc1c1c3ccccc3sc21

- emission maximum (in CS(C)=O): 653 nm
- emission maximum (in O): 720 nm
Structure (SMILES): CC1(C)C(/C=C/C=C/c2cc3ccc(O)cc3oc2=O)=[N+](CCCS(=O)(=O)[O-])c2ccccc21

- emission maximum (in ClC(Cl)Cl): 622 nm
Structure (SMILES): CC[N+](CC)=c1ccc2c(-c3ccccc3C(=O)O)c3cc4c(-c5ccccc5C(=O)O)c5ccc(=[N+](CC)CC)cc-5oc4cc3oc-2c1
